Experimental findings from patent publication US11124523B2, “2,6-dioxaspiro [4,5] decane derivatives and preparation method therefor and pharmaceutical applications thereof” (SHANDONG LUYE PHARMACEUTICAL CO., LTD., priority 2017, dated 2021) are described below.

Where a name gives a salt, the structure may show the parent alone.

The target in data set [1] is CYP2D6 (Homo sapiens (Human), UniProt P10635). The data set can be described thus: Inhibition of cytochrome P450 isoenzymes, CYP2D6. It is filed as in vitro ADME. The following applies: read-out: CYP 2D6 IC50. As for the experimental part:
(§1) 4.1 Experimental Purpose: To test the inhibitory effects of the compounds of the present disclosure on different isoforms of human cytochrome P450 isoenzymes
(§2) 1) The activities of CYP1A2, 2C9, 2C19, 2D6, and 3A4 were measured using a standard substrate method. In each reaction, the enzyme activities were measured in the presence and absence of the substance to be tested, wherein a single sample was measured at a total of eight test concentrations. A 5-in-1 mixed inhibitor was used.
(§3) 2) An incubation matrix comprising microsomes, a substrate, and an inhibitor or the compound to be tested was pre-incubated at 37° C. for 5 minutes, and then NADPH was added to start the reaction.
(§4) 3) After the incubation, acetonitrile with an internal standard was added to stop the reaction.
(§5) 4) Metabolites generated by the substrates were measured by using the LC-MS/MS method, and the peak area ratio of each metabolite to the internal standard was evaluated and the inhibition rate and IC50 were calculated.

A short description of data set [2]: Metabolic stability in liver microsomes. It is filed as in vitro ADME. The following applies: pH 7.4; human liver microsomes 0.5 mg protein/mL; 45 mg microsome protein/g liver, 20 g liver/kg; read-out: Intrinsic Clearance CLint(liver) in Human Liver. As for the experimental part: Test 3: Metabolic Stability in Liver Microsomes
3.1 Experimental Purpose: To test the metabolic stability of the compounds of the present disclosure in human liver microsomes
a. All samples as well as testosterone, diclofenac and propafenone acting as reference substances were dissolved in DMSO to a storage concentration of 10 mM.
b. Intermediate Solution: 5 μL of the substance to be tested or the reference substance was diluted with 45 μL of DMSO (with 450 μL of 1:1 methanol/water).
c. Working Solution: the intermediate solution was diluted with 450 μL of 100 mM potassium phosphate buffer solution (pH 7.4).
Assay Buffer: 100 mM potassium phosphate buffer (pH 7.4) • 10 mM MgCl2
Liver Microsome Solution (final concentration: 0.5 mg protein/mL):
Human liver microsomes, obtained from BD, Cat No. 452117, Lot No. 38291
b. 10 μL of the working solution containing the substance to be tested or the reference substance was added to each of plates (T0, T5, T10, T20, T30, T60, NCF60).
c. The liver microsome solution was dispensed into a 96-well plate in an amount of 680 μL/well, then 80 was added, and then T was added to each of the plates. The above incubation plate was placed at 37° C. and pre-incubated for approximately 10 minutes.
d. 10 μL of 100 mM potassium phosphate buffer was added to each well in the NCF60 plate.
e. After the pre-incubation was finished, the NADPH regeneration system working solution was dispensed into the 96-well plate in an amount of 90 μL/well, and then added to each of the plates in an amount of 10 μL/well to start the reaction.
f. The plates were incubated for an appropriate time (e.g., 5, 10, 20, 30, or 60 minutes).
g. The stop solution (refrigerated at 4° C., containing 100 ng/mL Tolbutamide and 100 ng/mL Labetalol) was added to each sample well in an amount of 300 μL/well.
h. The sample plates were shaken well for about 10 minutes and centrifuged at 4,000 rpm for 20 minutes at 4° C. During the centrifugation, 300 μL of HPLC water was added to each well, and 100 μL of the supernatant was taken for LC-MS/MS analysis.
T1/2 and Clint(mic) were calculated by the following formula: […]
Each gram of liver contained 45 mg of microsome protein, and the liver weight was 20 g/kg in a human.
Ct was the concentration at time t, t was the incubation time, C0 was the concentration at time 0, Ke was an elimination rate constant, Clint(mic) was the intrinsic clearance in liver microsomes, and Clint(liver) was the intrinsic clearance in liver. CLint(mic)=0.693/half-life/mg of microsome protein per mL(concentration of microsomes during incubation) CLint(liver)=CLint(mic)×mg of microsome protein/g of liver weight×a ratio of liver weight to body weight 3.4 Test Results

The target of data set [3] is CYP2C9 (Homo sapiens (Human), UniProt P11712). In words: Inhibition of cytochrome P450 isoenzymes, CYP2C9. To be noted: >50 μM: inhibitory effect less than 50% at 50 μM; read-out: CYP 2C9 IC50. It counts as in vitro ADME. As for the experimental part:
as §1, §2, §3, §4, §5

In data set [4] the target is CYP3A4 (Homo sapiens (Human), UniProt P08684). The data set can be described thus: Inhibition of cytochrome P450 isoenzymes, CYP3A4. It is filed as in vitro ADME. To be noted: >50 μM: inhibitory effect less than 50% at 50 μM; read-out: CYP 3A4 IC50. As for the experimental part: as §1, §2, §3, §4, §5
In data set [5] the target is T1, human μ-subtype opioid receptor (hMOR) (Homo sapiens (Human), UniProt P35372). In words: MOR β-arrestin-2 agonist activity test. It counts as cell-based. The following applies: for EC50: >30000 nM = greater than the highest detection concentration, read-out: MOR β-arrestin-2 EC50; for Emax: maximum effect of enkephalin DAMGO was 100%, about 0% = no actual agonist activity. As for the experimental part: Test 2: β-Arrestin-2 Agonist Activity Test
2.1 Experimental Purpose: To test the β-arrestin-2 agonist activity of the compounds of the present disclosure on the human μ-subtype opioid receptor (hMOR).
a. All samples were dissolved in DMSO to a storage concentration of 10 mM.
(§6) b. A series of diluted samples were formulated on a 384-well LDV plate. A total of 11 concentration points were obtained by 3.162-fold gradient dilution.
c. The series of diluted samples were transferred to an experimental plate by using an Echo machine, wherein 60 nL of the compound was transferred corresponding to each well.
d. 60 nL of 3.33 mM DAMGO (as HPE) and 60 nL of DMSO (as ZPE) were transferred to the corresponding positions on the experimental plate by using the Echo machine.
The experiment was performed using PathHunter Detection Kit from DiscoveRX Cooperation (DiscoveRX #93-0213C3)
a. Assay buffer and PathHunter detection reagent required for the experiment were formulated.
Assay Buffer: 1×DPBS buffer
PathHunter Detection Reagent: The kit was provided therein with three constituents.
c. The experimental plate was centrifuged at 300 rpm for 30 s and incubated at room temperature for 2 hours.
d. 6 μL of the PathHunter detection reagent was added to each well of the experimental plate.
e. The experimental plate was centrifuged at 300 rpm for 30 seconds, then left at room temperature for 60 minutes, and then read on the Envision.

For data set [6], the target named is CYP2C19 (Homo sapiens (Human), UniProt P33261). In words: Inhibition of cytochrome P450 isoenzymes, CYP2C19. It is filed as in vitro ADME. The following applies: >50 μM: inhibitory effect less than 50% at 50 μM; read-out: CYP 2C19 IC50. The procedure: as §1, §2, §3, §4, §5
The target of data set [7] is T1, human μ-subtype opioid receptor (hMOR). The data set can be described thus: MOR cAMP agonist activity test. It counts as cell-based. The following applies: for Emax: maximum effect of enkephalin DAMGO was 100%. The procedure: Test 1: MOR cAMP Agonist Activity Test
1.1 Experimental Purpose: To test the cAMP agonist activity of the compounds of the present disclosure on the human μ-subtype opioid receptor (hMOR).
a. Compound samples were dissolved in DMSO to a storage concentration of 10 mM.
as §6
c. The series of diluted samples were transferred to an experimental plate (Corning-3824) by using an Echo machine, wherein 30 nL was transferred corresponding to each well.
The experiment was performed using a cAMP detection kit from Cisbio (Cisbio #62AM4PEJ).
a. Assay buffer and stimulation buffer (STB) required for the experiment were formulated.
Stimulation Buffer: formulated with the assay buffer, containing 5 μM NKH477 (CAS: 138605-00-2) and 200 μM IBMX (3-isobutyl-1-methylxanthine)
b. […] The number of cells in the well was 10,000 cells/well.
c. The experimental plate was placed in a 37° C. constant-temperature incubator for incubation. The incubation was performed for 40 minutes.
d. A cAMP standard concentration curve was prepared. The first concentration point was at 2848 nM, and a total of sixteen detection concentrations were obtained by 4-fold gradient dilution. There were three replicates for each concentration point.
e. The cAMP detection kit from Cisbio was provided therein with a d2-labeled cAMP reagent (d2 reagent) and an Eu-labeled cAMP antibody reagent (Crypate reagent). The above two reagents were formulated according to the kit instructions, and then added to the sample experimental plate and to the cAMP standard concentration experimental plate, respectively. It was necessary to add 5 μL of the d2 reagent and then 5 μL of the Cryptate reagent to each well.
f. After the experimental plates were left at room temperature for 60 minutes, the experimental plates were read on the Envision.

The target of data set [8] is hERG potassium channels (Homo sapiens (Human), UniProt Q12809). The data set can be described thus: Effects on hERG potassium channels (Qpatch, CHO-hERG cells). It counts as cell-based. The following applies: highest test concentration 40 μM, read-out: IC50 representing the blocking effects of hERG potassium currents. The procedure: 5.1 Experimental Purpose: To test the blocking effects of the compounds of the present disclosure on hERG potassium currents.
a. CHO-hERG cells were cultured in a 175 cm^2 culture flask. When the cells were grown to a density of 60 to 80%, the culture solution was removed, and the cells were washed once with 7 mL of PBS (phosphate buffer solution), and then 3 mL of a cell digestion solution (Detachin) was added for digestion of the cells.
b. After completely digested, the cells were neutralized by adding 7 mL of the culture solution and then centrifuged, the supernatant was removed, and then 5 mL of the culture solution was added for resuspension to ensure a cell density of 2 to 5×10^6 cells/mL.
The single-cell high-impedance sealing and whole-cell pattern formation processes were both carried out automatically by the Qpatch instrument. After the whole-cell recording pattern was obtained, the cells were clamped at −80 millivolts. A preceding voltage of −50 millivolts was applied for 50 milliseconds prior to application of a depolarizing stimulus of +40 millivolts for 5 seconds, and then the cells were repolarized to −50 millivolts and maintained for 5 seconds and then returned back to −80 millivolts. This voltage stimulation was applied every 15 seconds, and data were recorded for 2 minutes, and thereafter the extracellular fluid was administered and data were recorded for 5 minutes, and then the administration process was started. The compound was administered for 2.5 minutes at each test concentration from the lowest test concentration. After all the concentrations of the compound were administered, […] of Cisapride was administered as a positive comparative compound. At least three cells (n>3) were tested for each concentration.
a. A 20 mM compound mother solution was diluted with the extracellular fluid, wherein 5 μL of the 20 mM compound mother solution was taken and diluted 500 times to 40 μM by adding 2495 μL of the extracellular fluid thereto, and then 3-fold serial dilutions were performed sequentially in the extracellular fluid containing 0.2% DMSO to obtain a final concentration to be tested.
b. The highest test concentration was 40 μM, and there were six concentrations in total, i.e., 40, 13.33, 4.44, 1.48, 0.49, and 0.16 μM, respectively.
c. The DMSO content in the final test concentration was not more than 0.2%. This concentration of DMSO had no effect on the hERG potassium channel.
The experimental data were analyzed by XLFit software.

Chain of CYP2C19 (P33261 whole entry): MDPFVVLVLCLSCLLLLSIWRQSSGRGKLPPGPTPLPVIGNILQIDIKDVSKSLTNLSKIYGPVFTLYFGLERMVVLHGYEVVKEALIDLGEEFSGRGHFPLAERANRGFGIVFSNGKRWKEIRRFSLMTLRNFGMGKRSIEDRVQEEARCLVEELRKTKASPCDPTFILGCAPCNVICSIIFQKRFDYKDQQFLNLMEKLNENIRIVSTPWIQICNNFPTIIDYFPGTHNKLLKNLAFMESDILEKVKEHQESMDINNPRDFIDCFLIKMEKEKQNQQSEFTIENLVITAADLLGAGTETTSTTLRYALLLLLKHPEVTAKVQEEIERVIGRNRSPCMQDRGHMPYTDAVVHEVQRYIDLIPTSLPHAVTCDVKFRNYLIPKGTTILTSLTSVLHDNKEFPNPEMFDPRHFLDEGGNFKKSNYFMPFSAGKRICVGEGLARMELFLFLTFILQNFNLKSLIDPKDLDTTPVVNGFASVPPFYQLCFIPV
Chain of CYP2C9 (P11712 whole entry): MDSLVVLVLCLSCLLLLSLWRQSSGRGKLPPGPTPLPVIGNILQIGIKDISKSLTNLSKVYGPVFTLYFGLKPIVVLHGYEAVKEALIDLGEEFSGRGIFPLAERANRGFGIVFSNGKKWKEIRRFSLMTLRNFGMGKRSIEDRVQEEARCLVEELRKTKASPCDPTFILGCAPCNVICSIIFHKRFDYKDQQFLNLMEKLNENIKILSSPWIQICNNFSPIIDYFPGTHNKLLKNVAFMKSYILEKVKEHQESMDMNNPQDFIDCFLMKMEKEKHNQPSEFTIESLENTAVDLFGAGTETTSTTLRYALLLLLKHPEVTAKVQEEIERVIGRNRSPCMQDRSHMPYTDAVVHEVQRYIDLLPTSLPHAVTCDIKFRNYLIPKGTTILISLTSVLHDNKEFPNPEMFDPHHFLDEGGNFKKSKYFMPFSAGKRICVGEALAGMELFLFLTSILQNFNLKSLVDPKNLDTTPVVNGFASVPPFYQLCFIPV
Chain of CYP2D6 (P10635 whole entry, canonical isoform): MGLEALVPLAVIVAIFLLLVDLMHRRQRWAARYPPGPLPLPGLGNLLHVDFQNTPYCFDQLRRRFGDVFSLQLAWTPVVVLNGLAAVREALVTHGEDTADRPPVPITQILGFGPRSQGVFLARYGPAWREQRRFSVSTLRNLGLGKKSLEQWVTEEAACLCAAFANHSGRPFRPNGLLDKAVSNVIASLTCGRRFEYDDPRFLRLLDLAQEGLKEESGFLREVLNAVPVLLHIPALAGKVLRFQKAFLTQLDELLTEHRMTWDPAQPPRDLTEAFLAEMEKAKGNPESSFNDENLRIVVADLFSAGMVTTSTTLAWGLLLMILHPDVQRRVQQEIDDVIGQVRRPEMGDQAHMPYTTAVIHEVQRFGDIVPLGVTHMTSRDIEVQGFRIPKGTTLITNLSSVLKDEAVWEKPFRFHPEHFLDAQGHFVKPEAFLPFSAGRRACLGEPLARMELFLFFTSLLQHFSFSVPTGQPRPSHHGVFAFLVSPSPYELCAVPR
Chain of CYP3A4 (P08684 whole entry): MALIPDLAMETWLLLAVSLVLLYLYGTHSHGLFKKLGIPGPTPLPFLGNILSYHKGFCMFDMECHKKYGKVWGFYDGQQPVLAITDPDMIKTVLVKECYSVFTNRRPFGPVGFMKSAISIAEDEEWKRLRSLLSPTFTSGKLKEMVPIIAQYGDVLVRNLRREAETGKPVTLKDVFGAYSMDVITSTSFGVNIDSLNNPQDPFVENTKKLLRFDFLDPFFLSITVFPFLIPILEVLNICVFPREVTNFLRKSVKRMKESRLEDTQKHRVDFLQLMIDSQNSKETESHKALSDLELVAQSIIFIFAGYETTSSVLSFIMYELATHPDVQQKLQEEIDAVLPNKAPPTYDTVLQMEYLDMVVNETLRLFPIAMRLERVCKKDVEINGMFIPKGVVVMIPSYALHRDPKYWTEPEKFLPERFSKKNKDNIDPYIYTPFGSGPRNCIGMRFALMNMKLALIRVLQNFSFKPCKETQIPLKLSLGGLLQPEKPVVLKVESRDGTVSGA
Chain of hERG potassium channels (Q12809 whole entry): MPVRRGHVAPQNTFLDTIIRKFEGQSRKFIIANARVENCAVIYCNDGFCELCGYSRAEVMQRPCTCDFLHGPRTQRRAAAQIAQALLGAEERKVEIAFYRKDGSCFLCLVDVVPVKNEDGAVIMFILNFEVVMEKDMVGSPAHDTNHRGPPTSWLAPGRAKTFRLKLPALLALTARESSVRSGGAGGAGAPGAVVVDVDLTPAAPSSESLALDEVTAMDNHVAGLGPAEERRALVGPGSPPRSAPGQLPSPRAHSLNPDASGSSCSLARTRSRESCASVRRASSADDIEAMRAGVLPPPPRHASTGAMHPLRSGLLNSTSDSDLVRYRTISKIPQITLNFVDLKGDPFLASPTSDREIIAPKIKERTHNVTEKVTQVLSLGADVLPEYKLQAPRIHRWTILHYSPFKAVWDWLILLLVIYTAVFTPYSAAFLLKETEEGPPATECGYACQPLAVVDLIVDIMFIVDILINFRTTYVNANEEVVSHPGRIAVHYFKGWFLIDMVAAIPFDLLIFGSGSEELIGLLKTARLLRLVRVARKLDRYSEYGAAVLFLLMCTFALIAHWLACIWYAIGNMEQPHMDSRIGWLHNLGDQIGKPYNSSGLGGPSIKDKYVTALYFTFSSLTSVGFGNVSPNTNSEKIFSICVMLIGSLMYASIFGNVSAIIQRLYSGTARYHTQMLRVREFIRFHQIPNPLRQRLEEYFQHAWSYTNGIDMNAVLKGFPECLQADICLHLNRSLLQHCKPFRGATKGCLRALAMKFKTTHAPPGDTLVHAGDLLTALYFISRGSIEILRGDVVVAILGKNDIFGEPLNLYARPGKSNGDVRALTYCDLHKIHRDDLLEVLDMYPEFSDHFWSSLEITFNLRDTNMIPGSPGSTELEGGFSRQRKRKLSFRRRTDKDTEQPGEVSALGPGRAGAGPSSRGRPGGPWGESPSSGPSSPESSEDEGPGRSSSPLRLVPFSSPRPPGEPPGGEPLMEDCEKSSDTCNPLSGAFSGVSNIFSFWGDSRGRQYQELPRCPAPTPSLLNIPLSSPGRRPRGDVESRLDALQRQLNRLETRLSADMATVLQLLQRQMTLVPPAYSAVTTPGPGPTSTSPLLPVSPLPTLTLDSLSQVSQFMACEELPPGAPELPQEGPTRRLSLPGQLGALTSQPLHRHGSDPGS

Usually IC50 stands for the concentration needed to halve the response being measured. The EC50 is the concentration that produces a half-maximal response. One may read the Emax as the maximal effect, on the per cent scale that the assay sets. `Cc1cccc(CNCC[C@@]2(c3ccccn3)CCO[C@]3(CCOC3)C2)c1` [(+)-9]: the half-inhibitory concentration (IC50) is 23.4 µM in data set [1], above 50 µM in data set [3], 21.9 µM in data set [4] and above 50 µM in data set [6]. For the same compound, the CLint scaled in data set [2] stood at 8.8 mL/min/kg. Also, the concentration giving a half-maximal response (EC50) was above 30 µM in data set [5] and 0.0061 µM in data set [7]. Further, the Emax was around 0% in data set [5] and 88.9% in data set [7].

Regarding `Fc1ccc([C@]2(CCNCc3cccc(Cl)c3)CCO[C@]3(CCOC3)C2)nc1` [Hydrochloride Salt of (+)-16], the IC50 in data set [8] came to 22.8 µM.

On to `Fc1ccnc([C@]2(CCNCc3scc4c3CCC4)CCO[C@]3(CCOC3)C2)c1` [(+)-6], for which the CLint scaled in data set [2] came to 86 mL/min/kg. Further, in data set [5], the concentration for a half-maximal effect (EC50) is above 30 µM and the Emax was around 0%. In data set [7], this compound came in with an EC50 of 0.0018 µM and an Emax of 86.5%.

Take `Clc1cccc(CNCC[C@@]2(c3ccccn3)CCO[C@]3(CCOC3)C2)c1` [(+)-8]: the IC50 in data set [1] is 17.3 µM; in data set [3], above 50 µM; in data set [4] it was above 50 µM; in data set [6], above 50 µM. Further, the CLint scaled in data set [2] turned out to be 10 mL/min/kg. Also, the 50% effective concentration (EC50) in data set [5] was above 30 µM; in data set [7], 0.0018 µM. Further, the Emax in data set [5] is around 0%; in data set [7], 85.3%.

`Fc1cc(Cl)cc(CNCC[C@@]2(c3ccccn3)CCO[C@]3(CCOC3)C2)c1` [(+)-18]: the IC50 is 24.5 µM in data set [1], above 50 µM in data set [3], above 50 µM in data set [4] and above 50 µM in data set [6]. Further, the CLint scaled in data set [2] came out at 84.9 mL/min/kg. Further, the EC50 in data set [5] is above 30 µM; in data set [7], 0.0042 µM. Moreover, the figures for the Emax in data set [5] and in data set [7] were around 0% and 87.7%, respectively.

In the case of `c1ccc([C@]2(CCNCc3cccc4c3CCCC4)CCO[C@]3(CCOC3)C2)nc1` [(+)-11], the CLint scaled in data set [2] is 72.5 mL/min/kg. Besides, the EC50 in data set [5] was above 30 µM; in data set [7], 0.0014 µM. In addition, the Emax in data set [5] was around 0%; in data set [7], 87.2%.
